PubChem BioAssay (NCI)
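Cells were grown in 96-well plates and exposed to each compound for 48 hours at five concentrations; endpoints were interpolated linearly between bracketing concentrations, or set to the highest concentration if not reached. The concentration for 50% growth inhibition is given as GI50. At the TGI there is no net growth.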

What was measured:
Assay in all cases: DTP human tumour cell line panel, 48 h
K-562 leukemia = test system: K-562 leukemia
OVCAR-4 ovarian = test system: OVCAR-4 ovarian
OVCAR-3 ovarian = test system: OVCAR-3 ovarian
M14 melanoma = test system: M14 melanoma
HT29 colon = test system: HT29 colon
NCI-H522 lung = test system: NCI-H522 lung
SK-MEL-28 melanoma = test system: SK-MEL-28 melanoma
IGROV1 ovarian = test system: IGROV1 ovarian
HOP-62 NSCLC = test system: HOP-62 NSCLC
PC-3 prostate = test system: PC-3 prostate

| Structure (SMILES) | TGI (K-562 leukemia) | TGI (OVCAR-4 ovarian) | TGI (OVCAR-3 ovarian) | TGI (M14 melanoma) | TGI (HT29 colon) | TGI (NCI-H522 lung) | TGI (SK-MEL-28 melanoma) | TGI (IGROV1 ovarian) | TGI (HOP-62 NSCLC) | TGI (PC-3 prostate) | GI50 (HOP-62 NSCLC) | GI50 (K-562 leukemia) | GI50 (PC-3 prostate) | GI50 (OVCAR-3 ovarian) | GI50 (NCI-H522 lung) | GI50 (IGROV1 ovarian) |
| --- | --- | --- | --- | --- | --- | --- | --- | --- | --- | --- | --- | --- | --- | --- | --- | --- |
| COC(=O)C1CSC(c2csc(CCN)n2)=N1 (centres undefined) | > 100 µM | > 100 µM | > 100 µM | > 100 µM | > 100 µM | > 100 µM | > 100 µM | > 100 µM | – | – | – | – | – | – | – | – |
| O=Cc1cccc2ccc3ccccc3c12 | – | – | 40.4 µM | 49.4 µM | 54.2 µM | 52 µM | – | – | 52.4 µM | 55.5 µM | – | – | – | – | – | – |
| NC1N=Nc2ccccc21 (centres undefined) | > 100 µM | > 100 µM | > 100 µM | > 100 µM | > 100 µM | > 100 µM | > 100 µM | > 100 µM | > 100 µM | – | – | – | – | – | – | – |
| CC1=NN(C(=O)Cc2ccccc2)C(=O)/C1=C\c1ccc([N+](=O)[O-])cc1 | > 100 µM | > 100 µM | > 100 µM | > 100 µM | > 100 µM | > 100 µM | > 100 µM | > 100 µM | > 100 µM | – | – | – | – | – | – | – |
| O=C(NC(=Nc1ccccc1)SCSC(=Nc1ccccc1)NC(=O)c1ccco1)c1ccco1 | > 100 µM | > 100 µM | > 100 µM | > 100 µM | > 100 µM | 91.5 µM | > 100 µM | > 100 µM | 44.9 µM | – | – | – | – | – | – | – |
| Cc1cc(=O)oc2cc(OCCCOc3ccc4c(C)cc(=O)oc4c3)ccc12 | > 100 µM | > 100 µM | > 100 µM | > 100 µM | > 100 µM | – | > 100 µM | > 100 µM | > 100 µM | – | – | – | – | – | – | – |
| O=C(Cc1ccccc1[N+](=O)[O-])C(CO)c1ccccc1[N+](=O)[O-] (centres undefined) | > 100 µM | > 100 µM | > 100 µM | > 100 µM | > 100 µM | 70.5 µM | > 100 µM | > 100 µM | > 100 µM | – | – | – | – | – | – | – |
| C/C(CCn1[nH]c(=O)ccc1=O)=N\NC(=O)C(N)=O | > 100 µM | > 100 µM | > 100 µM | > 100 µM | > 100 µM | > 100 µM | > 100 µM | > 100 µM | > 100 µM | – | – | – | – | – | – | – |
| O=C(O)CN(c1ccccc1)S(=O)(=O)c1cccc([N+](=O)[O-])c1 | > 100 µM | > 100 µM | > 100 µM | > 100 µM | > 100 µM | > 100 µM | > 100 µM | > 100 µM | – | – | – | – | – | – | – | – |
| c1ccc2c(c1)SC(=C1Sc3ccccc3S1)S2 | > 100 µM | > 100 µM | > 100 µM | > 100 µM | > 100 µM | – | > 100 µM | > 100 µM | > 100 µM | – | – | – | – | – | – | – |
| CC(=O)c1ccccc1NC(=O)C(=O)C(C(=O)c1ccc2ccccc2c1)C1OC(=O)c2ccccc21 (centres undefined) | 70.3 µM | 57 µM | 54.3 µM | 36.6 µM | 92.4 µM | 29.2 µM | 32.5 µM | 52.6 µM | 28.4 µM | – | – | – | – | – | – | – |
| COc1ccc(Nc2nc3cc(C(F)(F)F)ccc3nc2-c2ccccc2)cc1OC | > 100 µM | > 100 µM | > 100 µM | > 100 µM | > 100 µM | > 100 µM | 63.8 µM | > 100 µM | 39.3 µM | – | – | – | – | – | – | – |
| O=C1/C(=C/c2ccc([N+](=O)[O-])s2)Oc2cc(Cl)ccc21 | 1.46 µM | – | 0.898 µM | – | – | 0.713 µM | – | 3.61 µM | > 100 µM | 1.75 µM | 7.9 µM | 0.296 µM | 0.387 µM | 0.325 µM | 0.25 µM | 0.941 µM |
| CC(C)OP(=S)(NC(=S)c1ccccc1)OC(C)C | > 100 µM | > 100 µM | > 100 µM | > 100 µM | > 100 µM | – | > 100 µM | > 100 µM | – | – | – | – | – | – | – | – |
| COc1ccc2c(c1)[n+]([O-])c(-c1cccc(Cl)c1)c(N)[n+]2[O-] | > 100 µM | > 100 µM | > 100 µM | – | > 100 µM | 30.4 µM | 83 µM | > 100 µM | > 100 µM | – | – | – | – | – | – | – |
| CC1(C)NC(=O)N(CCCCCCN2C(=O)NC(C)(C)C2=O)C1=O | > 100 µM | > 100 µM | – | > 100 µM | > 100 µM | > 100 µM | > 100 µM | > 100 µM | – | – | – | – | – | – | – | – |
| N#CCCN(CCC#N)c1ccc(/C=C(/NC(=O)c2cc([N+](=O)[O-])ccc2Cl)C(=O)NN)cc1 | > 100 µM | > 100 µM | > 100 µM | > 100 µM | > 100 µM | > 100 µM | > 100 µM | > 100 µM | > 100 µM | – | – | – | – | – | – | – |
